Source: PubChem BioAssay (NCI)
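Test compounds were applied to cells in 96-well plates for 48 hours at 5 doses. Abbreviation: GI50, concentration required for 50% inhibition of growth. Definition used: TGI = concentration required for complete inhibition of growth.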

What was measured:
Test in all cases: NCI tumour cell line growth inhibition, 48 h; in the data active = GI50 below about 0.43 µM; inactive = the rest
[1] = system: CAKI-1 renal
[2] = system: NCI-H460 lung
[3] = system: OVCAR-5 ovarian
[4] = system: NCI/ADR-RES ovarian
[5] = system: SR leukemia
[6] = system: COLO 205 colon
[7] = system: IGROV1 ovarian
[8] = system: A498 renal
[9] = system: M14 melanoma
[10] = system: OVCAR-4 ovarian
[11] = system: TK-10 renal
[12] = system: SN12C renal
[13] = system: KM12 colon
[14] = system: HCT-116 colon
[15] = system: PC-3 prostate
[16] = system: MCF7 breast
[17] = system: DU-145 prostate
[18] = system: RXF 393 renal
[19] = system: UO-31 renal
[20] = system: T-47D breast
[21] = system: HOP-92 NSCLC
[22] = system: MDA-MB-435
[23] = system: RPMI-8226 leukemia
[24] = system: NCI-H226 lung
[25] = system: SF-268 CNS
[26] = system: SF-295 CNS
[27] = system: EKVX NSCLC
[28] = system: HT29 colon
[29] = system: UACC-257 melanoma
[30] = system: MALME-3M melanoma
[31] = system: NCI-H522 lung
[32] = system: SF-539 CNS
[33] = system: ACHN renal
[34] = system: SK-OV-3 ovarian
[35] = system: K-562 leukemia
[36] = system: HCT-15 colon
[37] = system: OVCAR-3 ovarian
[38] = system: NCI-H23 lung
[39] = system: HS 578T breast
[40] = system: SK-MEL-2 melanoma
[41] = system: CCRF-CEM leukemia
[42] = system: HCC-2998 colon
[43] = system: SNB-19 CNS
[44] = system: SK-MEL-5 melanoma
[45] = system: U251 CNS
[46] = system: OVCAR-8 ovarian
[47] = system: SK-MEL-28 melanoma
[48] = system: HL-60(TB) leukemia
[49] = system: LOX IMVI melanoma
[50] = system: HOP-62 NSCLC
[51] = system: BT-549 breast
[52] = system: UACC-62 melanoma
[53] = system: MOLT-4 leukemia
[54] = system: 786-0 renal
[55] = system: MDA-MB-231 breast
[56] = system: A549 NSCLC
[57] = system: SW-620 colon
[58] = system: SNB-75 CNS

COc1cc(C2C3=C(COC3=O)N(CCO)c3cc4c(cc32)CCC4)cc(OC)c1O (stereo not drawn)
5.64 µM: TGI [8]
0.122 µM: TGI [31]
0.184 µM: TGI [37]
> 26.3 µM: TGI [1]
> 9.16 µM: TGI [51]
> 21.4 µM: TGI [16]
1.29 µM: TGI [42]
0.354 µM: TGI [26]
> 11 µM: TGI [44]
5.52 µM: TGI [13]
> 12.5 µM: TGI [14]
11.4 µM: TGI [7] | TGI [39]
active: GI50 [2] 0.114 µM | GI50 [5] 0.192 µM | GI50 [6] 0.229 µM | GI50 [7] 0.159 µM | GI50 [8] 0.131 µM | GI50 [9] 0.179 µM | GI50 [10] 0.278 µM | GI50 [13] 0.121 µM | GI50 [14] 0.138 µM | GI50 [15] 0.203 µM | GI50 [16] 0.107 µM | GI50 [17] 0.136 µM | GI50 [18] 0.0943 µM | GI50 [19] 0.426 µM | GI50 [20] 0.141 µM | GI50 [22] 0.0646 µM | GI50 [25] 0.182 µM | GI50 [26] 0.0973 µM | GI50 [28] 0.156 µM | GI50 [30] 0.104 µM | GI50 [31] 0.0432 µM | GI50 [32] 0.136 µM | GI50 [34] 0.168 µM | GI50 [35] 0.161 µM | GI50 [37] 0.0703 µM | GI50 [38] 0.402 µM | GI50 [39] 0.106 µM | GI50 [40] 0.0795 µM | GI50 [42] 0.221 µM | GI50 [43] 0.318 µM | GI50 [44] 0.102 µM | GI50 [45] 0.145 µM | GI50 [46] 0.365 µM | GI50 [47] 0.213 µM | GI50 [48] 0.0874 µM | GI50 [49] 0.187 µM | GI50 [50] 0.213 µM | GI50 [52] 0.134 µM | GI50 [57] 0.121 µM
inactive: GI50 [1] 0.508 µM | GI50 [3] 3.18 µM | GI50 [4] 2.45 µM | GI50 [11] > 32.5 µM | GI50 [12] 0.499 µM | GI50 [21] > 32.5 µM | GI50 [23] 0.838 µM | GI50 [24] 3.75 µM | GI50 [27] 1.38 µM | GI50 [33] 0.706 µM | GI50 [36] 1.09 µM | GI50 [41] 1.21 µM | GI50 [51] 0.68 µM | GI50 [53] 0.52 µM | GI50 [54] 0.77 µM | GI50 [55] 0.76 µM | GI50 [56] 0.499 µM
> 21 µM: TGI [4]
0.262 µM: TGI [40]
2.16 µM: TGI [6]
6.65 µM: TGI [2]
> 32.5 µM: TGI [3] | TGI [5] | TGI [10] | TGI [11] | TGI [12] | TGI [15] | TGI [19] | TGI [20] | TGI [21] | TGI [23] | TGI [24] | TGI [25] | TGI [27] | TGI [29] | TGI [30] | TGI [32] | TGI [33] | TGI [34] | TGI [35] | TGI [36] | TGI [38] | TGI [41] | TGI [43] | TGI [45] | TGI [46] | TGI [47] | TGI [49] | TGI [50] | TGI [52] | TGI [53] | TGI [55] | TGI [56] | TGI [57]
0.191 µM: TGI [22]
32 µM: TGI [54]
0.448 µM: TGI [48]
2.31 µM: TGI [17]

Cc1nnc([S-])s1.[Au+].c1ccc([PH+](c2ccccc2)c2ccccc2)cc1
3.56 µM: TGI [9]
2.87 µM: TGI [58]
6.91 µM: TGI [41]
3.17 µM: TGI [31]
5.31 µM: TGI [23]
2.88 µM: TGI [51]
3.41 µM: TGI [13]
3.21 µM: TGI [26]
3.24 µM: TGI [21]
inactive: GI50 [1] 1.64 µM | GI50 [3] 1.7 µM | GI50 [5] 1.67 µM | GI50 [7] 1.53 µM | GI50 [58] 1.53 µM | GI50 [9] 1.62 µM | GI50 [11] 1.83 µM | GI50 [13] 1.83 µM | GI50 [15] 1.52 µM | GI50 [17] 1.68 µM | GI50 [18] 1.26 µM | GI50 [19] 1.64 µM | GI50 [20] 2.2 µM | GI50 [21] 1.82 µM | GI50 [22] 1.7 µM | GI50 [23] 1.8 µM | GI50 [26] 1.74 µM | GI50 [29] 1.52 µM | GI50 [30] 1.59 µM | GI50 [31] 0.692 µM | GI50 [32] 1.63 µM | GI50 [33] 1.86 µM | GI50 [37] 1.73 µM | GI50 [40] 1.64 µM | GI50 [41] 2.04 µM | GI50 [42] 1.83 µM | GI50 [43] 1.6 µM | GI50 [44] 1.51 µM | GI50 [47] 1.57 µM | GI50 [48] 1.85 µM | GI50 [49] 1.44 µM | GI50 [51] 1.47 µM | GI50 [52] 1.28 µM | GI50 [53] 2.34 µM | GI50 [54] 1.78 µM | GI50 [55] 1.65 µM
2.97 µM: TGI [7] | TGI [44]
2.53 µM: TGI [18]
2.82 µM: TGI [49]
2.99 µM: TGI [19] | TGI [47]
3.09 µM: TGI [29]
3 µM: TGI [1] | TGI [30] | TGI [32]
3.18 µM: TGI [22]
> 100 µM: TGI [5]
3.36 µM: TGI [42]
6.76 µM: TGI [53]
3.26 µM: TGI [33]
2.98 µM: TGI [43]
6.12 µM: TGI [20]
2.92 µM: TGI [15]
3.11 µM: TGI [40]
3.32 µM: TGI [11] | TGI [54]
3.14 µM: TGI [37]
3.05 µM: TGI [55]
5.51 µM: TGI [48]
3.23 µM: TGI [17]
2.56 µM: TGI [52]
3.13 µM: TGI [3]

[O-]c1c2cc(-[n+]3c(-c4ccccc4)cc(-c4ccccc4)cc3-c3ccccc3)cc1CO[C@@H](c1ccccc1)[C@H](c1ccccc1)OCc1cccc(n1)CO[C@@H](c1ccccc1)[C@H](c1ccccc1)OC2
1.68 µM: TGI [52]
